Assay results as given in ChEMBL document CHEMBL5465560, “Selectivity Literature for EUbOPEN Chemogenomic Library” (2024).
Non-standard residues stand in square brackets, D forms with d. Residues, ends and D or L forms follow the SMILES beside them. Arg(Me) = CNC(=N)NCCC[C@H](N)C(=O)O; d3Pal = N[C@H](Cc1cccnc1)C(=O)O; azaGly = NNC(=O)O

What was measured:
[1] = target: T1, Cytoplasmic tyrosine-protein kinase BMX (Homo sapiens) (UniProt P51813); experiment: Selectivity interaction (KinomeScan (DiscoverX)) EUB0001068a BMX; details: at 1 µM
T1 sequence (whole entry): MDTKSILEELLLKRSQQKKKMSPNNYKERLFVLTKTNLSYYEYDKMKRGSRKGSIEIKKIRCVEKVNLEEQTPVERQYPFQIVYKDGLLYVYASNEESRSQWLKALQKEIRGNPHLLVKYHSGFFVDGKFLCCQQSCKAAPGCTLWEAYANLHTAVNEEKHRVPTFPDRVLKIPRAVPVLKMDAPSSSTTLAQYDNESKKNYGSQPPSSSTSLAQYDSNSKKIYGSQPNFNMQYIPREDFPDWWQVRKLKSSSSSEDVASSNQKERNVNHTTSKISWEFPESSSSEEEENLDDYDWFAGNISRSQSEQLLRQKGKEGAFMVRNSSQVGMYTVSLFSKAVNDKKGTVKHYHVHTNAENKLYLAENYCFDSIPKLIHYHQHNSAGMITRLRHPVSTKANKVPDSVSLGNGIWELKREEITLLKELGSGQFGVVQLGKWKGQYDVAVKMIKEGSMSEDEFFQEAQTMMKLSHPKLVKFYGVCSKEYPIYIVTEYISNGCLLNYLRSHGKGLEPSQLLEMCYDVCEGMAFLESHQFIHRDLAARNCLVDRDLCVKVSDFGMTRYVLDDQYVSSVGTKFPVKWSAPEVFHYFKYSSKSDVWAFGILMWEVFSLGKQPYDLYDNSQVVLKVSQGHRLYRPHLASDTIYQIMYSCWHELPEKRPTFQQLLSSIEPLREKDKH

[2] = target: Serine/threonine-protein kinase 38-like (Homo sapiens) (UniProt Q9Y2H1); experiment: Selectivity interaction (KinomeScan (DiscoverX)) EUB0001068a STK38L; details: at 1 µM
[3] = target: T2, Serine/threonine-protein kinase Nek1 (Homo sapiens) (UniProt Q96PY6); experiment: Selectivity interaction (KinomeScan (DiscoverX)) EUB0001068a NEK1; details: at 1 µM
T2 sequence (whole entry): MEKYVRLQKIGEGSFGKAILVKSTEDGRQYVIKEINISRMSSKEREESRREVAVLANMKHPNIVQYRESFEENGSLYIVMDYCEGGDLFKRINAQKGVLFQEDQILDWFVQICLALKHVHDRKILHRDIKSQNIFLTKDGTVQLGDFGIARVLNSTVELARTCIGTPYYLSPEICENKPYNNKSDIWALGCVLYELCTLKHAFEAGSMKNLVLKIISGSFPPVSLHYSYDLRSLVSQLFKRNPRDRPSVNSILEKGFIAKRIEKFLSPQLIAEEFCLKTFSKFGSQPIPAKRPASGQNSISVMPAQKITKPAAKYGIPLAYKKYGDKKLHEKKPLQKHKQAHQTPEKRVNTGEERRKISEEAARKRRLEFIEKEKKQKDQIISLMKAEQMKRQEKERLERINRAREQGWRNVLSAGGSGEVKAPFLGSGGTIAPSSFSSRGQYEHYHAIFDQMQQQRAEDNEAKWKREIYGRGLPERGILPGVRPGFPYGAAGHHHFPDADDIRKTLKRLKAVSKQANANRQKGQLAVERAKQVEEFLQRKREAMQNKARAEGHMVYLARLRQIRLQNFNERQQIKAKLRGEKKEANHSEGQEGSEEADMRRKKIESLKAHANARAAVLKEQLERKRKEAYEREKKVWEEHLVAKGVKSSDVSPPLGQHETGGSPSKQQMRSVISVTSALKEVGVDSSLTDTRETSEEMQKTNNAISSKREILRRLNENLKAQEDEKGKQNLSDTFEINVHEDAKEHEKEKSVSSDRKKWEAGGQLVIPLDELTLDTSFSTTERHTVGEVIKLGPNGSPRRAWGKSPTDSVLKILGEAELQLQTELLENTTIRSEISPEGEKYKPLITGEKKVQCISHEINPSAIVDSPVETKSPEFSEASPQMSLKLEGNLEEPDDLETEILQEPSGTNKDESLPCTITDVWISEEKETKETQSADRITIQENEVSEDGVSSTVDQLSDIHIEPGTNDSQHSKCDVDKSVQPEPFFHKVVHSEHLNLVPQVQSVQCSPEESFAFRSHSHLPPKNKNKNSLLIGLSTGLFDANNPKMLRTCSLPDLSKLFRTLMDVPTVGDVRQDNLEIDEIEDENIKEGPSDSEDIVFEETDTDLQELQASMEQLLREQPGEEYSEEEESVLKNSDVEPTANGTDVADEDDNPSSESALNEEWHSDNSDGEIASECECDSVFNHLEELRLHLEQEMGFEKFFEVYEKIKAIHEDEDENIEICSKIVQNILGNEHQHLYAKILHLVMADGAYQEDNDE

[4] = target: 5-hydroxytryptamine receptor 1E (Homo sapiens) (UniProt P28566); experiment: Selectivity interaction (GPCR panel (PDSP screen)) EUB0001072a HTR1E; details: at 10 µM
[5] = target: Alpha-2B adrenergic receptor (Homo sapiens) (UniProt P18089); experiment: Selectivity interaction (GPCR panel (PDSP screen)) EUB0001072a ADRA2B; details: at 10 µM
Sequence of Alpha-2B adrenergic receptor (Homo sapiens) (P18089 whole entry): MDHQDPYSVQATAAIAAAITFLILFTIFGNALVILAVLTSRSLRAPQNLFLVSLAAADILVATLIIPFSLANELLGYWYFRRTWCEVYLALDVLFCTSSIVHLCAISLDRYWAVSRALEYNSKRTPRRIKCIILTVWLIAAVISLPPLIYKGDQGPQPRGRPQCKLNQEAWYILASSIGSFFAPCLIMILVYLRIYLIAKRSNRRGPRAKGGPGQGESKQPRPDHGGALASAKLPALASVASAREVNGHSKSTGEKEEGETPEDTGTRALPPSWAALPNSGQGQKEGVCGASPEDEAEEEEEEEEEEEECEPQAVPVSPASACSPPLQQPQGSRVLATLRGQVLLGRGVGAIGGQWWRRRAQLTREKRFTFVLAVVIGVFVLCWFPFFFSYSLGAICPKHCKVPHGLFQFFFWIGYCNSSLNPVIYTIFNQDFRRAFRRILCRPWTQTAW

[6] = target: Sodium-dependent dopamine transporter (Homo sapiens, UniProt Q01959); experiment: Selectivity interaction (GPCR panel (PDSP screen)) EUB0001072a SLC6A3; details: at 10 µM
Sequence of Sodium-dependent dopamine transporter (Q01959 whole entry): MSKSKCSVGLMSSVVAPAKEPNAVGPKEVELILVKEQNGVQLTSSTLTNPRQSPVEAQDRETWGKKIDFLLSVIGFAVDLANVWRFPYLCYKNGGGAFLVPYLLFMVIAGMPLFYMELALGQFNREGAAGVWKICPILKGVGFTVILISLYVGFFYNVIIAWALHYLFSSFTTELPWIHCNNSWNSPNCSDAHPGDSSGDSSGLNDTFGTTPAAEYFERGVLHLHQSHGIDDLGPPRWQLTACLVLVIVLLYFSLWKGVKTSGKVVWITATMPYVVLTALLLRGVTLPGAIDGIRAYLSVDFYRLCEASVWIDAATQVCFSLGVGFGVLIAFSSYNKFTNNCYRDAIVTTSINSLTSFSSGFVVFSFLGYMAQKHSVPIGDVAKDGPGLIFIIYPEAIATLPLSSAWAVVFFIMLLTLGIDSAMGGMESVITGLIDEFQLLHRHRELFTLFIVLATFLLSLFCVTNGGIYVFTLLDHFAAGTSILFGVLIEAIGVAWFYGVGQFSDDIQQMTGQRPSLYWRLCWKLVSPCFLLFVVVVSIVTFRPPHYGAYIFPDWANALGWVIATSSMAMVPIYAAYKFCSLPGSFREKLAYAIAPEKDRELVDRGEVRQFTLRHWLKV

[7] = target: 5-hydroxytryptamine receptor 1B (Homo sapiens) (UniProt P28222); experiment: Selectivity interaction (GPCR panel (PDSP screen)) EUB0001072a HTR1B; details: at 10 µM
[8] = target: T3, 5-hydroxytryptamine receptor 1A (Homo sapiens) (UniProt P08908); experiment: Selectivity interaction (GPCR panel (PDSP screen)) EUB0001072a HTR1A; details: at 10 µM
T3 sequence (whole entry): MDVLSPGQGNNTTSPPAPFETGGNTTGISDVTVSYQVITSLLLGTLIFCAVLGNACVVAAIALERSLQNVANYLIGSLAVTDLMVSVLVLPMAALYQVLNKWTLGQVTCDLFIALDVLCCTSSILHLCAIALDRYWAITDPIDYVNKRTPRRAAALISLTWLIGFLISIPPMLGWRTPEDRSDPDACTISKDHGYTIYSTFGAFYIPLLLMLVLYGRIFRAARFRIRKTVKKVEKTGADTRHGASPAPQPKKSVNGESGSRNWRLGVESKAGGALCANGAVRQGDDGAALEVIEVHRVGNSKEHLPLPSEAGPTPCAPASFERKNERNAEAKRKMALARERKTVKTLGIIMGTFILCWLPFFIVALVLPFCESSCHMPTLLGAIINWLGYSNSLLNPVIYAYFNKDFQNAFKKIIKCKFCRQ

[9] = target: Muscarinic acetylcholine receptor M4 (Homo sapiens) (UniProt P08173); experiment: Selectivity interaction (GPCR panel (PDSP screen)) EUB0001072a CHRM4; details: at 10 µM
Sequence of Muscarinic acetylcholine receptor M4 (Homo sapiens) (P08173 whole entry): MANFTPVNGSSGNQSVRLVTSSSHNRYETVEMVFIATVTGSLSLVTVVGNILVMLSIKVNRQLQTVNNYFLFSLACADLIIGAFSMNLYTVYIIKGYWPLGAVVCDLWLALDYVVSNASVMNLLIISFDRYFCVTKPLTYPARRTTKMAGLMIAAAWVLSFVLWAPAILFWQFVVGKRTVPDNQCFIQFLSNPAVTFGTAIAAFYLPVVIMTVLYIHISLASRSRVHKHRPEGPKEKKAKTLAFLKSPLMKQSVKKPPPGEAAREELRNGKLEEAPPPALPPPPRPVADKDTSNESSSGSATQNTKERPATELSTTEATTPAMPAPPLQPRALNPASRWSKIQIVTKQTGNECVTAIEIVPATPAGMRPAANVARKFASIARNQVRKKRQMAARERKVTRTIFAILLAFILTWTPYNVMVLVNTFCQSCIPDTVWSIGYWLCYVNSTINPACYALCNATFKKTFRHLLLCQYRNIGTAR

[10] = target: D(1B) dopamine receptor (Homo sapiens) (UniProt P21918); experiment: Selectivity interaction (GPCR panel (PDSP screen)) EUB0001072a DRD5; details: at 10 µM
Sequence of D(1B) dopamine receptor (Homo sapiens) (P21918 whole entry): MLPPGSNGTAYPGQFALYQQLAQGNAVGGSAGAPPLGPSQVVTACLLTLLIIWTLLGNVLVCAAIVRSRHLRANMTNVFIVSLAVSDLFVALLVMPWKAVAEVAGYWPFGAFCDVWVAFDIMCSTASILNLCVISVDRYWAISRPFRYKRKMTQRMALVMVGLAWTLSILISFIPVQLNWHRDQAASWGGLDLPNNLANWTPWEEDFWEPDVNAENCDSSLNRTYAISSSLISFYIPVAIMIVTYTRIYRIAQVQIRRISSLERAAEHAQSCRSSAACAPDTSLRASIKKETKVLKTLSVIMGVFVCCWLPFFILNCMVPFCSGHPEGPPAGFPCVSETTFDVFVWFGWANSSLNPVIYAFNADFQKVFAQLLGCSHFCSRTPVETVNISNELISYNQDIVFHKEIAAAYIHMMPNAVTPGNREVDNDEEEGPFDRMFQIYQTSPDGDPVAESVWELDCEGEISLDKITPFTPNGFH

[11] = target: 5-hydroxytryptamine receptor 1D (Homo sapiens) (UniProt P28221); experiment: Selectivity interaction (GPCR panel (PDSP screen)) EUB0001072a HTR1D; details: at 10 µM
Sequence of 5-hydroxytryptamine receptor 1D (Homo sapiens) (P28221 whole entry): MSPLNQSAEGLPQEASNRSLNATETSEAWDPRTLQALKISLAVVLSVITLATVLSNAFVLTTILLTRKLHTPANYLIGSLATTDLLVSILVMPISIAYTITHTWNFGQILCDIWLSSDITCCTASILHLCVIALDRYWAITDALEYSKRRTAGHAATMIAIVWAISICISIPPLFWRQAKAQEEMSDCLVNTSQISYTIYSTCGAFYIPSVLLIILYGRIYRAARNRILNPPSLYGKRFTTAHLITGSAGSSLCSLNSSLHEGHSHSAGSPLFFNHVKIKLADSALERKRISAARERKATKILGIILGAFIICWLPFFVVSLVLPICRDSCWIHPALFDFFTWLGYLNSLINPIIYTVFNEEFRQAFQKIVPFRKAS

[12] = target: 5-hydroxytryptamine receptor 5A (Homo sapiens) (UniProt P47898); experiment: Selectivity interaction (GPCR panel (PDSP screen)) EUB0001072a HTR5A; details: at 10 µM
Sequence of 5-hydroxytryptamine receptor 5A (Homo sapiens) (P47898 whole entry): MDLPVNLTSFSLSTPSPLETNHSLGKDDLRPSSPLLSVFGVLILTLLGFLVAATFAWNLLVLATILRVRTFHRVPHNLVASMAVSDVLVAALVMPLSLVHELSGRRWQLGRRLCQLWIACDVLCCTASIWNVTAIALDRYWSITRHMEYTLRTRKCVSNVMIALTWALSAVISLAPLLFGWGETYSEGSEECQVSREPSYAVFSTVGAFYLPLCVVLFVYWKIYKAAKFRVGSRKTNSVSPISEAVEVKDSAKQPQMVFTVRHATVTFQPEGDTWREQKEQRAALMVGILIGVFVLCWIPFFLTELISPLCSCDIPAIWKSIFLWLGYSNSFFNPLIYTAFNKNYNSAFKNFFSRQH

[13] = target: 4-aminobutyrate aminotransferase, mitochondrial (Homo sapiens, UniProt P80404); experiment: Selectivity interaction (GPCR panel (PDSP screen)) EUB0001072a ABAT; details: at 10 µM
Sequence of 4-aminobutyrate aminotransferase, mitochondrial (P80404 whole entry): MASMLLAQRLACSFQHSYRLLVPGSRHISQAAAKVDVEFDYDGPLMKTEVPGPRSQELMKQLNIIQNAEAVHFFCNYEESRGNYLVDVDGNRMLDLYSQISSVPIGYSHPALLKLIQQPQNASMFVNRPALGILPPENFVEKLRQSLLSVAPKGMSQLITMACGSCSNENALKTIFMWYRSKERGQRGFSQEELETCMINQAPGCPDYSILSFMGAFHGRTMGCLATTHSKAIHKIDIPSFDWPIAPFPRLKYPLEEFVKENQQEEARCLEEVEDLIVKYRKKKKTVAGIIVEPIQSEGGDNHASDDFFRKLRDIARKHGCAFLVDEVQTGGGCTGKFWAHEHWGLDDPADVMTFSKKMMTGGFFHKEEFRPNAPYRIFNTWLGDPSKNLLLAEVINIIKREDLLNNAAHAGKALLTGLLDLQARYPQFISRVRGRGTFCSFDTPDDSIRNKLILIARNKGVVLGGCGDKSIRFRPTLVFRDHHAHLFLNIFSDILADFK

[14] = target: 5-hydroxytryptamine receptor 2A (Homo sapiens, UniProt P28223); experiment: Selectivity interaction (GPCR panel (PDSP screen)) EUB0001072a HTR2A; details: at 10 µM
[15] = target: T4, Gamma-aminobutyric acid receptor subunit alpha-1 (Homo sapiens) (UniProt P14867); experiment: (§1) Selectivity interaction (GPCR panel (PDSP screen)) EUB0001072a GABRA1; details: at 10 µM
T4 sequence (whole entry): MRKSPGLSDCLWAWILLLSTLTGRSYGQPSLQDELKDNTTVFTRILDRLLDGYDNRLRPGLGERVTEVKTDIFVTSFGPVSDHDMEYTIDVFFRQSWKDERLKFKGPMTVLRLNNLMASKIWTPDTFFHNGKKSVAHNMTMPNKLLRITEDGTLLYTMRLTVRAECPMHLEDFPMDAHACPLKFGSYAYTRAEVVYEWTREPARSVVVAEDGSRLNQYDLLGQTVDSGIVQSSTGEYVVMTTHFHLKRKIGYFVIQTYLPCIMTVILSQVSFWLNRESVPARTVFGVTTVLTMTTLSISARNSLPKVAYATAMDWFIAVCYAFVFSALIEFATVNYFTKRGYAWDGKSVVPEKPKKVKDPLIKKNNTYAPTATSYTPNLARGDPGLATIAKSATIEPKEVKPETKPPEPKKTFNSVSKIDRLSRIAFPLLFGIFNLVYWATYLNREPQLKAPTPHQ

Histamine H3 receptor = Histamine H3 receptor (Homo sapiens, UniProt Q9Y5N1); experiment: Selectivity interaction (GPCR panel (PDSP screen)) EUB0001072a HRH3; details: at 10 µM
Sequence of Histamine H3 receptor (Q9Y5N1 whole entry): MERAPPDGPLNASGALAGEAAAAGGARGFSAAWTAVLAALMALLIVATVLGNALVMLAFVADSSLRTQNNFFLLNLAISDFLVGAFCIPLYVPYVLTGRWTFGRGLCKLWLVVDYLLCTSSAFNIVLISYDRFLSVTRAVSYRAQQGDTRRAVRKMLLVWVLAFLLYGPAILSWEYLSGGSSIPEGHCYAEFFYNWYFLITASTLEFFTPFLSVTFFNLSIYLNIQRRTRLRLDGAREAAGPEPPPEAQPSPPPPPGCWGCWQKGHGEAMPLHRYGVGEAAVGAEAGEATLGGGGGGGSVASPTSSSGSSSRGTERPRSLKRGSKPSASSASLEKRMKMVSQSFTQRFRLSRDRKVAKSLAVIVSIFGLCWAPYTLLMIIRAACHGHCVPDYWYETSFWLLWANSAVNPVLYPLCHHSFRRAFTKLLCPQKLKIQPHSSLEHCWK

[16] = target: Muscarinic acetylcholine receptor M5 (Homo sapiens) (UniProt P08912); experiment: Selectivity interaction (GPCR panel (PDSP screen)) EUB0001072a CHRM5; details: at 10 µM
[17] = target: T5, Muscarinic acetylcholine receptor M2 (Homo sapiens) (UniProt P08172); experiment: Selectivity interaction (GPCR panel (PDSP screen)) EUB0001072a CHRM2; details: at 10 µM
T5 sequence (whole entry): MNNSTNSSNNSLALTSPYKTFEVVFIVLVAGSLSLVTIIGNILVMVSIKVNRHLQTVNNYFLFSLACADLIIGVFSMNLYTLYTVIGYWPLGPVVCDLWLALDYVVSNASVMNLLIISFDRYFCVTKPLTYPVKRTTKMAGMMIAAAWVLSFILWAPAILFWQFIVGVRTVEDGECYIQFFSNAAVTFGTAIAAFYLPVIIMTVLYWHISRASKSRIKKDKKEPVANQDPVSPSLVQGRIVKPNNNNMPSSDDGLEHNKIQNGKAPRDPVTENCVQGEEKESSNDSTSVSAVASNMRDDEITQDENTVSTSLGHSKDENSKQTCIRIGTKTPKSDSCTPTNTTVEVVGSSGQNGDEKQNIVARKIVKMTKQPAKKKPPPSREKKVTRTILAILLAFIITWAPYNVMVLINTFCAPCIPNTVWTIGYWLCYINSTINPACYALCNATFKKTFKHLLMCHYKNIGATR

[18] = target: T6, Muscarinic acetylcholine receptor M1 (Homo sapiens) (UniProt P11229); experiment: Selectivity interaction (GPCR panel (PDSP screen)) EUB0001072a CHRM1; details: at 10 µM
T6 sequence (whole entry): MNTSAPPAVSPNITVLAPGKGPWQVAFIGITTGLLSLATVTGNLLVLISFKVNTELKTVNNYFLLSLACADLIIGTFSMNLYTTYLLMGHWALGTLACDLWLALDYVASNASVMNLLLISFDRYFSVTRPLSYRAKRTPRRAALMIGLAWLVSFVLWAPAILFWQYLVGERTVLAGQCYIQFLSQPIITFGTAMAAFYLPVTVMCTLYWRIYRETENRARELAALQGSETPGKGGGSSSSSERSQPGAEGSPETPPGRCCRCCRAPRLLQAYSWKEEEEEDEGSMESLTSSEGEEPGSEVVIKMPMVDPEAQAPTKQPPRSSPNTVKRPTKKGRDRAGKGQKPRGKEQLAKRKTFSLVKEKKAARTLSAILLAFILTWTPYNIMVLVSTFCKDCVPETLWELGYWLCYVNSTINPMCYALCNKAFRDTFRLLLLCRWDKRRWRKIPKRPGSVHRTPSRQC

[19] = target: Muscarinic acetylcholine receptor M3 (Homo sapiens, UniProt P20309); experiment: Selectivity interaction (GPCR panel (PDSP screen)) EUB0001072a CHRM3; details: at 10 µM
Sequence of Muscarinic acetylcholine receptor M3 (P20309 whole entry, looked up): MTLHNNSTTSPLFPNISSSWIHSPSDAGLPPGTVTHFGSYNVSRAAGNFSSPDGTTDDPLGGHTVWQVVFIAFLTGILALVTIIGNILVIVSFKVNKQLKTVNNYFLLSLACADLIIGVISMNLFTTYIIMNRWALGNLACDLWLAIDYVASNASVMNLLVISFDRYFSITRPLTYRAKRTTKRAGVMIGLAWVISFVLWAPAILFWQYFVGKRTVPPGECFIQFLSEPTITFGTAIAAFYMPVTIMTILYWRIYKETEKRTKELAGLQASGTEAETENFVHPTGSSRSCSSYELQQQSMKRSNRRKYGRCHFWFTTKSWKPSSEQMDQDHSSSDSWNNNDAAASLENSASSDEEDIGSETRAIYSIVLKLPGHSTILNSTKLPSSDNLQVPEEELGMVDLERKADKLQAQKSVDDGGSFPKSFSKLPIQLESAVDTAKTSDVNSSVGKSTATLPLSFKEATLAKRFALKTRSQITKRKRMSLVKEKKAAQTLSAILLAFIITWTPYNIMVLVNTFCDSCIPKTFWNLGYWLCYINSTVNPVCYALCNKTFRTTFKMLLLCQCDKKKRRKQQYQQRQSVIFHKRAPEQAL

[20] = target: 5-hydroxytryptamine receptor 2B (Homo sapiens, UniProt P41595); experiment: Selectivity interaction (GPCR panel (PDSP screen)) EUB0001072a HTR2B; details: at 10 µM
Sequence of 5-hydroxytryptamine receptor 2B (P41595 whole entry): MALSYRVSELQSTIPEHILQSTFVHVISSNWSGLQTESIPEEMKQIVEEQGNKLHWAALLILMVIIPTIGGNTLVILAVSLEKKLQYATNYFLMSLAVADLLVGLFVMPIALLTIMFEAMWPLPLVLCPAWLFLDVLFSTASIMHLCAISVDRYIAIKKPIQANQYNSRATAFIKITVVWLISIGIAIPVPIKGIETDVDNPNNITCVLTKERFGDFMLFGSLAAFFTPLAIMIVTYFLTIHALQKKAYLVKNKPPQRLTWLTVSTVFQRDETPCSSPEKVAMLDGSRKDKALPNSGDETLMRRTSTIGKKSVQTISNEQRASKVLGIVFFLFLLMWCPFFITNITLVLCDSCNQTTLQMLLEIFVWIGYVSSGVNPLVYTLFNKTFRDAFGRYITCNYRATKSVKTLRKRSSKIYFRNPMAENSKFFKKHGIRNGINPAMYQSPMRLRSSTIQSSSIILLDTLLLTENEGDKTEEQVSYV

[21] = target: T4, Gamma-aminobutyric acid receptor subunit alpha-1 (Homo sapiens); experiment: as §1; details: at 10 µM; remark: listed apart in the source
[22] = target: Mitogen-activated protein kinase kinase kinase kinase 5 (Homo sapiens) (UniProt Q9Y4K4); experiment: Selectivity interaction (33PanQinase Assay (Reaction Biology)) EUB0001107a MAP4K5
[23] = target: Serine/threonine-protein kinase PAK 3 (Homo sapiens) (UniProt O75914); experiment: Selectivity interaction (33PanQinase Assay (Reaction Biology)) EUB0001107a PAK3
[24] = target: Serine/threonine-protein kinase PAK 2 (Homo sapiens) (UniProt Q13177); experiment: Selectivity interaction (33PanQinase Assay (Reaction Biology)) EUB0001107a PAK2

## CN(C(=O)c1ccccc1)c1cc(N(C)c2ccc3c(c2)CCc2ccc(C(=O)NCCN4CCOCC4)cc2C3=O)ccc1F
[1]
  % of control: 50%
[2]
  % of control: 47%
[3]
  % of control: 45%

## CNC(=N)NCCC[C@H](NC(=O)[C@H](CC(C)C)NC(=O)NNC(=O)[C@H](Cc1ccccc1)NC(=O)[C@H](CO)NC(=O)[C@H](CC(N)=O)NC(=O)[C@@H](Cc1cccnc1)NC(=O)[C@H](N)Cc1ccc(O)cc1)C(=O)NCC(N)=O (H-[dY][d3Pal]NSF[azaGly]L[Arg(Me)]G-NH2)
[4]
  % of inhibition: 27.9%
[5]
  % of inhibition: 14.5%
[6]
  % of inhibition: 10.4%
[7]
  % of inhibition: 31%
[8]
  % of inhibition: 30.9%
[9]
  % of inhibition: 18.5%
[10]
  % of inhibition: 29.2%
[11]
  % of inhibition: 12.4%
[12]
  % of inhibition: 16.3%
[13]
  % of inhibition: 15.6%
[14]
  % of inhibition: 16.9%
[15]
  % of inhibition: 12.3%
Histamine H3 receptor
  % of inhibition: 12.5%
[16]
  % of inhibition: 12.3%
[17]
  % of inhibition: 40.7%
[18]
  % of inhibition: 15.1%
[19]
  % of inhibition: 24.7%
[20]
  % of inhibition: 11.3%
[21]
  % of inhibition: 15.5%

## CNc1ncc2cc(-c3ccc(-c4ncccc4F)cc3Cl)c(=O)n(C[C@H]3OC[C@H](N)CO3)c2n1
[22]
  % of residual activity: 8%
[23]
  % of residual activity: 9%
[24]
  % of residual activity: 10%
